Data from patent publication US10092568B2, “CBP/Catenin antagonists for enhancing asymmetric division of somatic stem cells” (University of Southern California, priority 2010, dated 2018).
“Also recorded” adds a separate entry of the source.

Legend:
[1] = system: human skin (surgical waste); experiment: Ex vivo human skin assay, qRT-PCR; assay type: cell-based; details: 24 hrs; 5 uM ICG-001, 5 uM methylated ICG-001, 1 ug/ml RA
Protocol: Methods. Ex Vivo human skin assay culture conditions were based upon a paper by Varani J et al Experimental and Molecular Pathology, 2004.
Briefly, human skin (surgical waste from plastic surgery procedures) was obtained and the subcutaneous layer of fat was trimmed manually with a scalpel. The skin was then cut into small fragments about 2 mm square and placed in 6 well plates. 1 ml of keratinocyte culture medium (Gibco 10724-011) with 1% P/S (penstrep antibiotic) was added to each well. The epidermis, bathed in media was placed facing up. On the next day (overnight culture in the media above), the skin fragments were transferred to fresh wells that contained either 5 uM ICG-001, 5-uM methylated ICG-001 or 1 ug/ml of retinoic acid (RA). After 24 hrs, skin samples in culture were removed for RNA isolation and qRT-PCR analysis of genes of interest (e.g., elastin (a gene involved in skin appearance and pliability (e.g., wrinkling)) and aquaporin 1, which is involved with hydration.

hair-less mouse model = experiment: Hair growth in a hair-less mouse model; assay type: in vivo
Protocol: The ability of CBP/β-catenin antagonist to stimulate hair growth in a hair-less mouse model was tested. In brief, the animals were treated with either petroleum jelly or Laura-8 for 16 days. In addition, skin samples from each animal were taken and examined for hair-follicle formulation.

aging mice = experiment: Long term topical treatment of aging mice; assay type: in vivo, mouse; details: 12 months, from 6 to 18 months of age
Text: Left mouse is control, whereas right mouse received CBP/catenin (e.g., CBP/β-catenin) antagonists (topical Laura-8 as disclosed herein) for 12 months (from 6 months of age to 18 months of age).

skin injury = experiment: Skin injury repair in normal mice and hair-less mice models; assay type: in vivo, mouse; details: 500 μM in vaseline once a day for eight days, both animal models
Protocol: The ability of CBP/catenin (e.g., CBP/β-catenin) antagonist to accelerate injured skin repair in normal mice models (having full hair growth and normal fur) and hair-less mice models was tested. In brief, on day 0, the animals were subjected to skin injury in two spots on the back, hind end of each animal. Each skin injury spot was treated with 500 μM of either Vaseline (petrolatum) (vehicle) or Laura-8 in vaseline once a day for eight days.

[2] = system: PR72/130 subunit of the serine/threonine phosphatase PP2A; experiment: Binding to PP2A subunit
Text: (§1) IQ-1. In addition to ICG-001, a screen of a large chemical library for maintenance of pluripotency in mES cells led to the identification of another compound, termed IQ-1 (FIG. 2b). […] I-Q-1 diminishes the interaction between p300 and beta-catenin thereby increasing the CBP/beta-catenin interaction (24).

[3] = system: murine embryonic stem cells (mESCs); experiment: Maintenance of pluripotency of embryonic stem cells in long-term culture; assay type: cell-based, mouse; details: Wnt-dependent
Text: as §1
Similar results upon selectively antagonizing the p300/catenin interaction have also been obtained with human ES cells (32; Hasegawa, K. et al. accepted Stem Cells Translation Medicine 2011). Blocking the CBP/catenin interaction with ICG-001 can prevent the induction of pluripotency, whereas selectively antagonizing the p300/catenin interaction can enhance reprogramming (33; present applicant unpublished data).

[4] = system: p300/beta-catenin interaction; experiment: Disruption of the p300/beta-catenin interaction; assay type: biochemical
Text: Applicant next mapped the binding domains between CBP and beta-catenin, as well as between p300 and beta-catenin. The C-terminal trans-activating region of beta-catenin (647-781) interacted with the same 1-111 amino acids of both CBP and p300 (23). However, only the interaction between CBP and beta-catenin was disrupted by ICG-001, and not the p300/beta-catenin interaction.
as §1

[5] = system: mitotic cells in the ventricular zone (VZ); experiment: Par3 localization assay of symmetric versus asymmetric divisions in the ventricular zone of embryonic brain; assay type: in vivo, mouse
Text: Taking advantage of the ready uptake and penetration through the placental barrier of applicant's small molecule Wnt modulators, applicant designed a series of experiments to investigate symmetric versus asymmetric divisions in the ventricular zone (VZ) of the brain during mouse embryonic development. Timed pregnant mice were topically treated for various time periods (1-3 days) with DMSO (vehicle control), the CBP/catenin antagonist ICG-001 or the p300/catenin antagonist IQ-1. Using a previously described protocol (56), the localization of […] (Par3) and DNA was examined in mitotic cells in the VZ. Par3 distributes symmetrically in cells that divide symmetrically and asymmetrically in cells that divide asymmetrically, whereas the DNA distributes symmetrically between the 2 cells. Using fluorescence microscopy, the percentage of mitotic cells dividing symmetrically or asymmetrically could be quantified. […] Antagonizing the CBP/catenin interaction with ICG-001 had no apparent effect yielding similarly, approximately 21% asymmetric divisions. […] Importantly, this decrease in asymmetric divisions upon treatment with IQ-1 could be rescued back essentially to control levels (i.e. ˜21%) by treatment with a 2-fold excess of ICG-001. Even further divergence in symmetric versus asymmetric divisions could be seen upon prolonged treatments. For example, treatment with IQ-1 (i.e., antagonizing p300/catenin interaction leading to increased usage of CBP) for 3 days (E13.5-16.5) decreased asymmetric divisions compared to control from 31% to 7%. […] This reporter mouse expresses EGFP, driven by the Tis21 promoter, in cells that have undergone neurogenic differentiative divisions.
For example, Bultje et al. (Bultje R Neuron 63, 189-202, 2009) describe an assay to measure asymmetric distributions in the ventricular zone (vz) to evaluate asymmetric divisions during neurogenesis. Essentially this involves treating the animal (either adult or in utero) for a set period of time with compounds (either p.o., s.c., i.v. or topically) with compounds and then sacrificing the animal and examining the Par3 distribution (e.g., via immunohistochemistry) in mitotic cells vs. DNA distribution (e.g., using DAPI staining) Par3 distributes equally among the two daughter cells during symmetric division and unequally (essentially all in one daughter cell) during asymmetric differentiation.

p300 at Ser-89 = experiment: Phosphorylation of p300 at Ser-89; assay type: cell-based
Text: as §1

**Q.** How did the “expression of aquaporin 1” value [1] turn out when `C[C@H]1C2N(C(=O)NCc3ccccc3)CCC(=O)N2[C@@H](Cc2ccc(O)cc2)C(=O)N1Cc1cccc2ccccc12` (some centres unmarked) [Me-ICG-001] was run?
**A.** larger increase

**Q.** And the expression of elastin [1]?
**A.** larger increase

**Q.** What does the source list for `CCCCCCCCCCCC(=O)Oc1ccc(C[C@H]2C(=O)N(Cc3cccc4ccccc34)C[C@@H]3N(C(=O)NCc4ccccc4)CCC(=O)N32)cc1` [Laura-8]?
**A.** hair growth (hair-less mouse model; 16 days, versus petroleum jelly): significant hair growth; new hair-follicle formation (hair-less mouse model; skin pathology): new hair-follicles were formed; also recorded: substantial new hair-follicle formation; normal stem cell niche (aging mice): does not deplete; skin healing (skin injury): significantly accelerated

**Q.** What does the source list for `CC(=O)c1ccc(N=NC(C(N)=O)=C2NC(C)(C)Cc3ccccc32)cc1` [IQ-1, reference compound]?
**A.** binding to PR72/130 subunit of PP2A [2]: binds; pluripotency of mESCs [3]: maintains the pluripotency; also recorded: prevents spontaneous differentiation; p300/beta-catenin interaction [4]: diminishes; asymmetric divisions in the VZ ([5]; 3 days, E13.5-16.5, control 31%): 7%; number of symmetric differentiative divisions ([5]; normal neural stem cells): increase; number of asymmetric divisions compared to vehicle control ([5]; topical or oral administration to pregnant mice): decreases; asymmetric divisions in the VZ ([5]; topical, 1 day, E13.5 to 14.5, DMSO approximately 21%): approximately 9%; phosphorylation of p300 at Ser-89 (p300 at Ser-89): decreased phosphorylation
